What was measured:
[1] = target: cGMP-specific 3',5'-cyclic phosphodiesterase (Homo sapiens, UniProt O76074); assay: Inhibitory activity against phosphodiesterase 5 from human platelets
[2] = target: Phosphodiesterase 3 (Homo sapiens, UniProt Q14432+Q13370); assay: Inhibition of human platelet Phosphodiesterase 3
[3] = target: T1, cGMP-dependent 3',5'-cyclic phosphodiesterase (Rattus norvegicus, UniProt Q01062); assay: Inhibition of rat brain Phosphodiesterase 2
T1 sequence (Q01062 whole entry): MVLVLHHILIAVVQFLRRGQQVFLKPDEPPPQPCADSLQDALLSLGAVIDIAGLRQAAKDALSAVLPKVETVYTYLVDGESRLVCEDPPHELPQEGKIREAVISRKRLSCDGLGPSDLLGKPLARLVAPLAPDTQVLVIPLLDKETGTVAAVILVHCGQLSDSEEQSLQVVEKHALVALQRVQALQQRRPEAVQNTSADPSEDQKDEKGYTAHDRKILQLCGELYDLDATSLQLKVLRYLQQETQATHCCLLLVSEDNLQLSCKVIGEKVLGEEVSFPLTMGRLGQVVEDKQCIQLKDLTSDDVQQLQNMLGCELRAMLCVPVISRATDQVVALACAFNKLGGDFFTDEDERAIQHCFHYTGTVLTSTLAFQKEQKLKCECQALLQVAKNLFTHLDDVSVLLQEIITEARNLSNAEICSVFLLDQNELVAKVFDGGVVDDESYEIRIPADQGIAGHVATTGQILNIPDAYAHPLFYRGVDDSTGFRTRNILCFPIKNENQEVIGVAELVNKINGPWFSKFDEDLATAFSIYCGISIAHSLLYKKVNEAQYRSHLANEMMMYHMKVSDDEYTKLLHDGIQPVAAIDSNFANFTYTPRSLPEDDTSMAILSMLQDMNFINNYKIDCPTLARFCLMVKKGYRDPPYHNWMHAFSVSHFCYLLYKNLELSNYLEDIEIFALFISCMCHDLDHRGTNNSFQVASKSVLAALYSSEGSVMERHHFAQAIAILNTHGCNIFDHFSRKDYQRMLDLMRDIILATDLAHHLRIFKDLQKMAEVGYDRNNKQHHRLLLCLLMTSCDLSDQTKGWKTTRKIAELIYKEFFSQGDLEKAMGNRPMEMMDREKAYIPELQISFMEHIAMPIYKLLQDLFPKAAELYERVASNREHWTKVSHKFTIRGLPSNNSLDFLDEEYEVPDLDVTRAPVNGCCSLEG

[4] = target: Phosphodiesterase 1 (Bos taurus, UniProt Q01061+P14100); assay: Inhibition of bovine aorta Phosphodiesterase 1; assay type: protein assay
[5] = target: Phosphodiesterase 4 (Rattus norvegicus, UniProt P14270+P14646+P14644+P54748); assay: Inhibition of rat kidney Phosphodiesterase 4; assay type: protein assay
[6] = target: Cyclooxygenase (Homo sapiens, UniProt P35354+P23219); assay: Inhibitory activity against Prostaglandin G/H synthase; assay type: protein assay
[7] = species: Rattus norvegicus; assay: Ex vivo inhibition of Thromboxane B2 production in A-23,187-Induced Rat Whole Blood; assay type: functional
[8] = species: Rattus norvegicus; assay: In vitro inhibition of Thromboxane B2 production in A-23,187-Induced Rat Whole Blood; assay type: functional
[9] = target: T2, Thromboxane-A synthase (Homo sapiens, UniProt P24557); assay: In vitro inhibition of Thromboxane A2 synthase in human platelet
T2 sequence (P24557 whole entry): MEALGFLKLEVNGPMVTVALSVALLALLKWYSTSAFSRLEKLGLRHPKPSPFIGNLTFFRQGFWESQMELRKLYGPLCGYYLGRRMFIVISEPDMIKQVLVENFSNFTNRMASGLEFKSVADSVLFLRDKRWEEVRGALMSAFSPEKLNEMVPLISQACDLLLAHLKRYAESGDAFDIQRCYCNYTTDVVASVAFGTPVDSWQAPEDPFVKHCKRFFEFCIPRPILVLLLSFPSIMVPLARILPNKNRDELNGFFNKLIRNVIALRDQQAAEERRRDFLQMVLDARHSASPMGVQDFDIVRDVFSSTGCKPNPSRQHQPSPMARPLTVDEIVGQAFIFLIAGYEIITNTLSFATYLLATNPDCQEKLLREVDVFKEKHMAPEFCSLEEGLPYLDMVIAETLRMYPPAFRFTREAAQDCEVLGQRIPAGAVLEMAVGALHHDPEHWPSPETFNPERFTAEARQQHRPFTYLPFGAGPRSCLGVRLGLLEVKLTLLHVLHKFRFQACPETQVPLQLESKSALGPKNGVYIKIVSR

[10] = species: Homo sapiens; assay: In vitro inhibition of Thromboxane A2 synthesis in human platelet; assay type: functional

| SMILES | IC50 [1] [nM] | also measured |
| --- | --- | --- |
| c1ccc(CNc2nc(-c3cccs3)nc3ccccc23)cc1 | 720 | IC50 [2]: > 100000 nM; IC50 [3]: 21000 nM; IC50 [4]: 13000 nM; IC50 [5]: 7600 nM |
| c1ccc(CCNc2nc(-c3ccccc3)nc3ccccc23)cc1 | 1900 |  |
| Clc1nc(NCc2ccccc2)c2ccccc2n1 | 4600 |  |
| c1ccc(CNc2nc(-c3ccco3)nc3ccccc23)cc1 | 2500 |  |
| c1ccc(Nc2nc(-c3ccco3)nc3ccccc23)cc1 | 2300 |  |
| c1ccc(Nc2nc(-c3cccs3)nc3ccccc23)cc1 | 2400 |  |
| Clc1ccc(Nc2nc(-c3ccccc3)nc3ccccc23)cc1 | 2150 |  |
| CN1CCN(c2nc(NCc3ccccc3)c3ccccc3n2)CC1 | 22000 |  |
| Clc1ccccc1Nc1nc(-c2ccccc2)nc2ccccc12 | 5500 |  |
| Clc1cccc(CNc2nc(-c3ccccc3)nc3ccccc23)c1 | 800 |  |
| Clc1ccc(CNc2nc(-c3ccccc3)nc3ccccc23)cc1 | 740 |  |
| O=[N+]([O-])c1cccc(Nc2nc(-c3ccccc3)nc3ccccc23)c1 | 420 |  |
| CCOC(=O)CCCNc1nc(-c2ccccc2)nc2ccccc12 | 4300 |  |
| c1ccc(-c2nc(NCC3CCCO3)c3ccccc3n2)cc1 (stereo not given) | 8800 |  |
| CN(Cc1ccccc1)c1nc(-c2ccccc2)nc2ccccc12 | 14000 |  |
| c1ccc(COc2nc(-c3ccccc3)nc3ccccc23)cc1 | 18500 |  |
| c1ccc(-c2nc(NC3CCCC3)c3ccccc3n2)cc1 | 2400 |  |
| c1ccc(CNc2nc(-c3cccnc3)nc3ccccc23)cc1 | 450 | IC50 [2]: > 100000 nM; IC50 [6]: 50000 nM; IC50 [3]: 19000 nM; IC50 [4]: 21000 nM; IC50 [5]: 9000 nM; ED50 [7]: > 30 mg/kg; IC50 [8]: > 10000 nM; IC50 [9]: 5800 nM |
| COC(=O)c1ccc(Nc2nc(-c3ccccc3)nc3ccccc23)cc1 | 860 |  |
| c1ccc(CNc2nc(C3CCCCC3)nc3ccccc23)cc1 | 11000 |  |

| SMILES | IC50 [1] [nM] | also measured |
| --- | --- | --- |
| OCCCCCNc1nc(-c2ccccc2)nc2ccccc12 | 15000 |  |
| c1ccc(-c2nc(NCc3ccco3)c3ccccc3n2)cc1 | 4700 |  |
| C(=C\c1nc(NCc2ccccc2)c2ccccc2n1)/c1ccccc1 | 1300 |  |
| Clc1ccccc1CNc1nc(-c2ccccc2)nc2ccccc12 | 800 |  |
| c1ccc(-c2nc(NCc3cccnc3)c3ccccc3n2)cc1 | 8600 |  |
| Cl.Cl.Clc1ccc2nc(-n3ccnc3)nc(NCc3ccccc3)c2c1 |  | IC50 [2]: > 3000 nM; IC50 [3]: > 3000 nM; IC50 [4]: > 3000 nM; IC50 [5]: > 3000 nM |
| c1coc(CNc2nc(-n3ccnc3)nc3ccccc23)c1 | 630 |  |
| c1cncc(-c2nc(NCC3CC3)c3ccccc3n2)c1 | 4400 |  |
| COc1cccc(Nc2nc(-c3ccccc3)nc3ccccc23)c1 | 760 |  |
| CN(c1ccccc1)c1nc(-c2ccccc2)nc2ccccc12 | 20000 |  |
| c1ccc(CCNc2nc(-c3cccnc3)nc3ccccc23)cc1 | 540 |  |
| c1ccc(-c2nc(NCc3ccccn3)c3ccccc3n2)cc1 | 11000 |  |
| c1cncc(CNc2nc(-c3cccnc3)nc3ccccc23)c1 | 2800 |  |
| c1cncc(-c2nc(NCC3CCCO3)c3ccccc3n2)c1 (stereo not given) | 5000 |  |
| c1ccc(-c2nc(Nc3cccnc3)c3ccccc3n2)cc1 | 13000 |  |
| Clc1cccc(Nc2nc(-c3ccccc3)nc3ccccc23)c1 | 1000 |  |
| c1ccc(CCNc2nc(-n3ccnc3)nc3ccccc23)cc1 | 860 |  |
| Fc1ccc2c(NCc3ccccc3)nc(-c3cccnc3)nc2c1 | 480 |  |
| O=C(O)/C=C/c1ccc(Cn2ccnc2)cc1 [OZAGREL] |  | IC50 [10]: 3300 nM |
| CCCOc1ccccc1-c1nc2[nH]nnc2c(=O)[nH]1 [ZAPRINAST] |  | IC50 [2]: 660000 nM; IC50 [3]: 100000 nM; IC50 [4]: 68000 nM |

More lines, main results first:

| IC50 [1] [nM] | SMILES | also measured |
| --- | --- | --- |
| 190 | COC(=O)c1cccc(Nc2nc(-c3ccccc3)nc3ccccc23)c1 |  |
| 210 | c1csc(CNc2nc(-n3ccnc3)nc3ccccc23)c1 |  |
| 310 | c1ccc(CNc2nc(-c3ccncc3)nc3ccccc23)cc1 | IC50 [2]: > 100000 nM; IC50 [6]: 14000 nM; IC50 [3]: 17000 nM; IC50 [4]: 7000 nM; IC50 [5]: 7500 nM; ED50 [7]: 11 mg/kg; IC50 [8]: 1800 nM; IC50 [9]: 830 nM |
| 260 | c1ccc(CNc2nc(-n3ccnc3)nc3ccccc23)cc1 | IC50 [2]: 50000 nM; IC50 [6]: 51000 nM; IC50 [3]: 25000 nM; IC50 [4]: 14000 nM; IC50 [5]: 3100 nM; ED50 [7]: 5.7 mg/kg; IC50 [8]: 1100 nM; IC50 [9]: 220 nM |
| 105 | Cc1ccc2nc(-c3cccnc3)nc(NCc3ccccc3)c2c1 |  |
| 360 | c1cncc(-c2nc(NCc3cccs3)c3ccccc3n2)c1 |  |
| 72 | COc1ccc2nc(-n3ccnc3)nc(NCc3ccco3)c2c1 |  |
| 10 | Cl.Cl.O=[N+]([O-])c1ccc2nc(-c3cccnc3)nc(NCc3ccccc3)c2c1 | IC50 [2]: > 3000 nM; IC50 [3]: > 3000 nM; IC50 [4]: > 3000 nM; IC50 [5]: > 3000 nM |
| 26 | Cl.Cl.Clc1ccc2nc(-c3cccnc3)nc(NCc3ccccc3)c2c1 | IC50 [2]: > 50000 nM; IC50 [3]: > 50000 nM; IC50 [4]: > 50000 nM; IC50 [5]: > 50000 nM |
| 2.3 | Brc1ccc2nc(-n3ccnc3)nc(NCc3ccccc3)c2c1 |  |
| 165 | Fc1ccc2nc(-c3cccnc3)nc(NCc3ccccc3)c2c1 |  |
| 120 | Clc1ccc2nc(-c3cccnc3)nc(NCc3ccco3)c2c1 |  |
| 110 | CS(=O)(=O)c1ccc2nc(-n3ccnc3)nc(NCc3ccccc3)c2c1 |  |
| 230 | c1ccc2c(NCC3CCCCC3)nc(-n3ccnc3)nc2c1 |  |
| 14 | CSc1ccc2nc(-n3ccnc3)nc(NCc3ccccc3)c2c1 |  |
| 16 | COc1ccc2nc(-n3ccnc3)nc(NCc3ccccc3)c2c1.Cl.Cl | IC50 [2]: 2000 nM; IC50 [3]: > 3000 nM; IC50 [4]: 2800 nM; IC50 [5]: 3300 nM; ED50 [7]: 2.6 mg/kg; IC50 [8]: 830 nM; IC50 [9]: 2500 nM |
| 2.6 | O=[N+]([O-])c1ccc2nc(-n3ccnc3)nc(NCc3ccccc3)c2c1 |  |
| 320 | c1ccc(CNc2nc(-c3ccccc3)nc3ccccc23)cc1 | IC50 [2]: > 100000 nM; IC50 [3]: 24000 nM; IC50 [4]: 22500 nM; IC50 [5]: 8200 nM |
